From patent publication US9333233B2, “Methods and compositions for the delayed treatment of stroke” (TARIX PHARMACEUTICALS LTD., priority 2014, dated 2016)

Key:
Format in all cases: in vivo
[1] = system: rat Transient Middle Cerebral Artery Occlusion (tMCAO) model; test: Neuroscore (Modified Neurological Rating Scale, mNRS) in rat tMCAO stroke model
Experimental: (§1) Transient middle cerebral artery occlusion was performed according to the method described R. Schmid-Eisaesser et al. Briefly, the right CCA (Common Carotid Artery) was exposed through a midline neck incision and carefully dissected free from surrounding nerves and fascia —from its bifurcation to the base of the skull. The occipital artery branches of the ECA (External Carotid Artery) were then isolated, and these branches were dissected and coagulated. The ECA was dissected further distally and coagulated along with the terminal lingual and maxillary artery branches, which was then divided. The ICA (Internal Carotid Artery) was isolated and carefully separated from the adjacent vagus nerve, and the pterygopalatine artery was ligated close to its origin with a 5-0 nylon suture (SMI, Belgium). Next a 4-0 silk suture was tied loosely around the mobilized ECA stump, and a 4 cm length of 4-0 monofilament nylon suture (the tip of the suture was blunted by using a flame, and the suture was coated with polylysine, prior to insertion) was inserted through the proximal ECA into the ICA and thence into the circle of Willis, effectively occluding the MCA. The surgical wound was closed and the animals were returned to their cages to recover from anesthesia. One hour and a half after occlusion rats were re-anesthetized, the monofilament was withdrawn to allow reperfusion, the surgical wound was closed and rats were returned to their cages.
Animals were subjected to the mNSS test (Neuroscore) at Day 2, 24 hours post reperfusion. Only animals with an overall score of ≧10 were included in this Example.
Each animal was also subjected to a neuroscore test. The Modified Neurological Rating Scale (mNRS), or Neuroscore, was performed before the operation, on Day 2 and on Day 15, Day 22, Day 29, Day 36 Day 43 and Day 50. The individual making the behavioral assessments was unaware of the drug/dose given (blind test). A total Neuroscore of 18 was possible, with higher scores correlating to worse functioning.
As in Example 1, each animal was subjected to a neuroscore test. The Modified Neurological Rating Scale (mNRS), or Neuroscore, was performed before the operation as described in Example 1 on day 2, day 29, day 43, day 50, day 57, day 64 and day 71. The individual making the behavioral assessments was unaware of the drug/dose given (blind test).
As in Examples 1 and 2, each animal was subjected to a neuroscore test. The Modified Neurological Rating Scale (mNRS), or Neuroscore, was performed before the operation as described in Example 1 on day 2, day 29, day 43, day 50, day 57, day 64, day 71. Day 78, and day 85. The individual making the behavioral assessments was unaware of the drug/dose given (blind test).

[2] = system: rat Transient Middle Cerebral Artery Occlusion (tMCAO) model; test: Limb placement test in rat tMCAO stroke model
Experimental: as §1
Animals were subjected to a limb placement test. The limb placing tests were divided into both forelimb and hindlimb tests. For the forelimb-placing test, the examiner held the rat close to a tabletop and scored the rat's ability to place the forelimb on the tabletop in response to whisker, visual, tactile or proprioceptive stimulation. Similarly, for the hindlimb placing test, the examiner assessed the rat's ability to place the hindlimb on the tabletop in response to tactile and proprioceptive stimulation. Separate sub-scores are obtained for each mode of sensory input and added to give total scores (for the forelimb placing test: 0=normal, 12=maximally impaired; for the hindlimb placing test: 0=normal; 6=maximally impaired). Scores were given in half-point increments (see below).
Forelimb placing test (0-12);
Visual placing (forward (0-2), sideways (0-2))
Tactile placing (dorsal (0-2), lateral (0-2))
Proprioceptive placing (0-2)
Animals were also subjected to a limb placement test as described in Example 1 on days 29, 43, 50, 57, 64 and 71.
Animals were also subjected to a limb placement test as described in Example 1 on days 29, 43, 50, 57, 64, 71, 78 and 85.

[3] = system: rat Transient Middle Cerebral Artery Occlusion (tMCAO) model; test: Cylinder test of motor function in rat tMCAO stroke model; details: Example 2; 50 μg/kg SC daily from day 29; day 57 (day 26 all animals ~0.3; vehicle day 57 ~0.4)
Experimental: Transient middle cerebral artery occlusion was performed according to the method described R. Schmid-Eisaesser et al. Briefly, the right CCA (Common Carotid Artery) was exposed through a midline neck incision and carefully dissected free from surrounding nerves and fascia —from its bifurcation to the base of the skull. The occipital artery branches of the ECA (External Carotid Artery) were then isolated, and these branches were dissected and coagulated. The ECA was dissected further distally and coagulated along with the terminal lingual and maxillary artery branches, which was then divided. The ICA (Internal Carotid Artery) was isolated and carefully separated from the adjacent vagus nerve, and the pterygopalatine artery was ligated close to its origin with a 5-0 nylon suture (SMI, Belgium). […]
The number of wall contacts performed independently with the left and right forepaw were counted and noted up to a total of 20 wall contacts per animal per session, and only supporting contacts were counted (i.e., full appositions of the paws with open digits to the cylinder walls).

[4] = system: rat Transient Middle Cerebral Artery Occlusion (tMCAO) model; test: Body swing test in rat tMCAO stroke model
Experimental: as §1
Animals were also subjected to a body swing test. Each rat was held approximately one inch from the base of its tail. It was then elevated to an inch above a surface of a table. The rat was held in the vertical axis, defined as no more than 10° to either the left or the right side. A swing was recorded whenever the rat moved its head out of the vertical axis to either side. Before attempting another swing, the rat had to return to the vertical position for the next swing to be counted, Twenty (20) total swings were counted. A normal rat typically has an equal number of swings to either side. Following focal ischemia, the rat tends to swing to the contralateral side (left side in this Example). Body swing scores were expressed as a percentage of […] over total swings.
Animals were also subjected to a body swing test as described in Example 1 on days 29, 43, 50, 57, 64 and 71.
Animals were also subjected to a body swing test as described in Example 1 on days 29, 43, 50, 57, 64, 71, 78 and 85.

[5] = system: rat Transient Middle Cerebral Artery Occlusion (tMCAO) model; test: Stepping test (forelimb akinesia) in rat tMCAO stroke model
Experimental: as §1
Animals were tested for forelimb akinesia in a stepping test (ST). The animal was held by its hind limbs fixed with one hand and the forelimb not to be monitored with the other, while the unrestrained fore-paw touched the table. The number of adjusting steps were counted while the animal is moved, sideways along the table surface (85 cm in approximately five seconds), in the forehand & backhand direction for both forelimbs.
Animals were also tested for forelimb akinesia in a stepping test (ST) as described in Example 1 on days 29, 43, 50, 57, 64 and 71.
Animals were also tested for forelimb akinesia in a stepping test (ST) as described in Example 1 on days 29, 43, 50, 57, 64, 71, 78 and 85.

[6] = system: rat Transient Middle Cerebral Artery Occlusion (tMCAO) model; test: Blood flow in the brain cortex (Flow-R Laser Doppler) in rat tMCAO stroke model; details: for enhanced blood flow as compared to vehicle controls: Example 1 first phase, day 50
Experimental: as §1
(§2) Evaluation of the blood flow in the brain cortex and vessel constriction was carried out using a Flow-R Laser Doppler system, in which intracranial blood flow and vessel diameter (constriction/dilation) was monitored.

[7] = system: rat Transient Middle Cerebral Artery Occlusion (tMCAO) model; test: Blood vessel diameter (Flow-R Laser Doppler) in rat tMCAO stroke model
Experimental: as §1, §2

[8] = Example 3, SC daily from day 29, TXA127 100-1,000 μg/kg, TXA302 1-500 μg/kg, by day 43, maintained through day 85
[9] = Example 3, SC daily from day 29, TXA127 100-1,000 μg/kg, TXA302 1-500 μg/kg, by day 43, maintained or improved through day 85
[10] = Example 3, SC daily from day 29, TXA127 100-1,000 μg/kg, TXA302 1-500 μg/kg, by day 43
[11] = Example 3, SC daily from day 29, TXA127 100-1,000 μg/kg, TXA302 1-500 μg/kg, by day 43, maintained through Day 85
[12] = Example 1 second phase, 500 ug/kg SC from day 51, measured day 108

Substance: Ala^1-Arg^2-Val^3-Ser^4-Ile^5-His^6-Cys^7 (ARVSIHC) [TXA302, angiotensin (1-7) peptide]
- neuroscore as compared to vehicle control animals ([1]; Example 2, 50 μg/kg SC daily from day 29 (28 days post-tMCAO), by day 43, maintained through day 71): statistically significant reduction in neuroscore
- neuroscore as compared to vehicle control animals [1, 8]: statistically significant reduction in neuroscore
- performance in limb placement test as compared to vehicle control animals ([2]; Example 2, 50 μg/kg SC daily from day 29, by day 43, maintained or improved through day 71): statistically significant improvements in performance
- performance in limb placement test as compared to vehicle control animals [2, 9]: statistically significant improvements in performance
- cylinder test ratio of left paw to right paw contacts [3]: ~0.75
- performance in body swing test ([4]; Example 2, 50 μg/kg SC daily from day 29, by day 50, maintained through Day 71): statistically significant improvement in performance
- performance in body swing test [4, 10]: statistically significant improvement in performance
- performance in stepping test as compared to vehicle control animals ([5]; Example 2, 50 μg/kg SC daily from day 29, by day 43, maintained through Day 71): significant improvement in performance
- performance in stepping test as compared to vehicle control animals [5, 11]: significant improvement in performance

Substance: Asp^1-Arg^2-Val^3-Tyr^4-Ile^5-His^6-Pro^7 (DRVYIHP; listed as Homo sapiens) [TXA127]
- enhanced blood flow as compared to vehicle controls ([6]; continuous infusion via Alzet pump): ~30%
- enhanced blood flow as compared to vehicle controls ([6]; subcutaneously administered, each treatment group): ~35%
- blood flow ratio as compared to vehicle control group [6, 12]: improved
- neuroscore as compared to vehicle control animals ([1]; Example 1 first phase, 100, 300, 500 μg/kg SC daily or Alzet pump, started 24 hours after tMCAO, all treatment groups by day 15, maintained through day 50): statistically significant reduction in neuroscore
- neuroscore as compared to vehicle control animals ([1]; Example 1 second phase, 500 ug/kg SC daily, first treatment day 51 after tMCAO, by day 65): statistically significant improvement
- neuroscore as compared to vehicle control animals [1, 8]: statistically significant reduction in neuroscore
- performance in forelimb placement test as compared to vehicle control ([2]; Example 1 first phase, 100, 300, 500 μg/kg SC or Alzet, started 24 hours after tMCAO, all treatment groups by day 15, continued through day 50): statistically significant improvements in performance
- performance in forelimb placement test ([2]; Example 1 second phase, 500 ug/kg SC daily from day 51, beginning on day 72, trend as early as day 58): statistically significant improvement in performance
- performance in limb placement test as compared to vehicle control animals [2, 9]: statistically significant improvements in performance
- improvement in blood vessel diameter as compared to vehicle controls ([7]; Example 1 first phase, continuous infusion via Alzet pump, day 50): ~40%
- enhanced blood vessel diameter, larger than vehicle control animals ([7]; Example 1 first phase, subcutaneously administered, each treatment group (100, 300, 500 μg/kg), day 50): approximately 20%
- vessel diameter as compared to vehicle control group [7, 12]: improved
- performance in body swing test ([4]; Example 1 first phase, 100, 300, 500 μg/kg SC or Alzet, started 24 hours after tMCAO, by day 15, statistical significance by day 22 in some groups, day 29 in all treatment groups): improvement in performance
- performance in body swing test ([4]; Example 1 second phase, 500 ug/kg SC daily from day 51, as early as day 58, maintained throughout observation period): trend toward improved performance
- performance in body swing test [4, 10]: statistically significant improvement in performance
- performance in stepping test as compared to vehicle control animals ([5]; Example 1 first phase, 100, 300, 500 μg/kg SC or Alzet, started 24 hours after tMCAO, all treatment groups by day 22): significant improvement in performance
- performance in stepping test as compared to vehicle control group ([5]; Example 1 second phase, 500 ug/kg SC daily from day 51, by day 65, increasing significance by day 86): statistically significant improvement in performance
- performance in stepping test as compared to vehicle control animals [5, 11]: significant improvement in performance
